Here are results for two compounds from ChEMBL document CHEMBL4665707, “Lung Protection by Cathepsin C Inhibition: A New Hope for COVID-19 and ARDS?” (J Med Chem, 2020).

Test [1] is described as follows: Reduction in whole blood neutrophil elastase activity in healthy human subjects at 25 mg dosed daily via oral route. Type of test: functional.
The nature of test [2]: Reduction in whole blood neutrophil elastase activity in healthy human subjects at 40 mg dosed daily via oral route. Type of test: functional.
The nature of test [3]: Reduction in whole blood neutrophil elastase activity in healthy human subjects at 10 mg dosed daily via oral route. Type of test: functional.
A further test concerns the target Dipeptidyl peptidase 1 (Homo sapiens, UniProt P53634). The experiment in a line: Inhibition of human cathepsin C.

Chain of Dipeptidyl peptidase 1 (P53634 25-134 limits assumed): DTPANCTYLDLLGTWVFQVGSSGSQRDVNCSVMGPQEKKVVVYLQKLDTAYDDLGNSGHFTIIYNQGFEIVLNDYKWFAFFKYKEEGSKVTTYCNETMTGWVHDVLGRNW
Chain of Dipeptidyl peptidase 1 (P53634 231-394 limits assumed): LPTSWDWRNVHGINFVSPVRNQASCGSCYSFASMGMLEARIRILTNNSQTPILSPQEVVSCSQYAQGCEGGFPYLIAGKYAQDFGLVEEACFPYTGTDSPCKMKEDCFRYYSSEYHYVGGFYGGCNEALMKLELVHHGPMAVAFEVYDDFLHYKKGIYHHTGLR
Chain of Dipeptidyl peptidase 1 (P53634 395-463 limits assumed): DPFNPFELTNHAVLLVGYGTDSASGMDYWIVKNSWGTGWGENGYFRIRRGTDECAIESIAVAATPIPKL

Regarding `Cn1c(=O)oc2ccc(-c3ccc(C[C@@H](C#N)NC(=O)[C@@H]4CNCCCO4)cc3)cc21` [BRENSOCATIB], the entries for the “inhibition (INH)” value in test [1], in test [2] and in test [3] were 49%, 59% and 30%, respectively.

Usually IC50 stands for the concentration at which inhibition is half-maximal. A low value points to greater potency. As for `CC[C@H](N)C(=O)N[C@]1(C#N)C[C@@H]1c1ccc(-c2ccc(S(=O)(=O)N3CCN(C)CC3)cc2)cc1`, 15 nM corresponded to half-maximal inhibition at Dipeptidyl peptidase 1 (IC50).
